Measured values taken from US8952024B2, “Herbicidal pyrimidone derivatives” (E I du Pont de Nemours and Company, priority 2009, dated 2015).

Key:
Type in all cases: in vivo
[1] = test system: barnyardgrass (Echinochloa crus-galli); experiment: Test A pre-/postemergence plant response
Procedure, shortened: (§1)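 Plants grown from seed in a loam soil and sand mix received test compounds both as a preemergence soil spray and, at the same time, as a postemergence spray at the one- to two-leaf stage. Injury was judged visually against untreated controls roughly ten days later, 0 meaning no effect and 100 complete control.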

[2] = test system: corn (Zea mays); experiment: Test A pre-/postemergence plant response
Procedure, shortened: as §1

[3] = test system: giant foxtail (Setaria faberii); experiment: Test A pre-/postemergence plant response
Procedure, shortened: as §1

[4] = test system: large crabgrass (Digitaria sanguinalis); experiment: Test A pre-/postemergence plant response
Procedure, shortened: as §1

[5] = test system: morningglory (Ipomoea spp.); experiment: Test A pre-/postemergence plant response
Procedure, shortened: as §1

[6] = test system: pigweed (Amaranthus retroflexus); experiment: Test A pre-/postemergence plant response
Procedure, shortened: as §1

[7] = test system: velvetleaf (Abutilon theophrasti); experiment: Test A pre-/postemergence plant response
Procedure, shortened: as §1

[8] = test system: wheat (Triticum aestivum); experiment: Test A pre-/postemergence plant response
Procedure, shortened: as §1

[9] = test system: barnyardgrass (Echinochloa crus-galli); experiment: Test B flooded paddy test; conditions: for Plant response rating, Barnyardgrass: Flood (flooded paddy test), 13 to 15 days
Procedure, shortened: (§2)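 Ratings are visual, 0–100 (100 = complete control), taken versus untreated controls 13 to 15 days after treatment in the greenhouse. Compound went straight into paddy water held 3 cm above soil, applied to 2-leaf-stage plants of four species.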

[10] = test system: ducksalad (Heteranthera limosa); experiment: Test B flooded paddy test; conditions: for Plant response rating, Ducksalad: Flood (flooded paddy test), 13 to 15 days
Procedure, shortened: as §2

[11] = test system: rice (Oryza sativa); experiment: Test B flooded paddy test; conditions: for Plant response rating, Rice: Flood (flooded paddy test), 13 to 15 days
Procedure, shortened: as §2

[12] = test system: umbrella sedge (Cyperus difformis); experiment: Test B flooded paddy test; conditions: for Plant response rating, Sedge, Umbrella: Flood (flooded paddy test), 13 to 15 days
Procedure, shortened: as §2

[13] = Postemergence, 125 g ai/ha, 0 to 100 scale where 0 is no effect and 100 is complete control
[14] = Postemergence, 500 g ai/ha, visual injury, 0 to 100 scale (0 no effect, 100 complete control), approx. ten days
[15] = Preemergence, 125 g ai/ha, 0 to 100 scale, 0 = no effect, 100 = complete control
[16] = Preemergence, 500 g ai/ha, 0 to 100 scale, 0 = no effect, 100 = complete control
[17] = 250 g ai/ha, flooded paddy test, visual rating on 0 to 100 scale (0 no effect, 100 complete control) after 13 to 15 days
[18] = 62 g ai/ha, scale of 0 to 100 where 0 is no effect and 100 is complete control
[19] = 125 g ai/ha, scale 0 to 100, 0 is no effect, 100 is complete control
[20] = Flood, 31 g ai/ha, scale 0 to 100 (0 no effect, 100 complete control)

CCn1c(-c2ccccc2)ncc(C(=O)C2=C(O)C3CCC(C3)C2=O)c1=O (centres unmarked) [Compound 239]
90: Plant response rating, Barnyardgrass [1, 13] | Barnyardgrass plant response rating [1, 14] | Crabgrass, Large plant response rating [4, 14] | Pigweed plant response rating [6, 14]
0: Plant response rating, Corn [2, 15] | Plant response rating, Corn [2, 16] | Plant response rating, Wheat [8, 13] | Wheat plant response rating [8, 14] | Plant response rating, Wheat [8, 15] | Plant response rating, Barnyardgrass [9, 18] | Plant response rating, Barnyardgrass [9, 19] | Barnyardgrass plant response rating [9, 20] | Plant response rating, Ducksalad [10, 18] | Ducksalad plant response rating [10, 20] | Plant response rating, Flood, Rice [11, 17] | Plant response rating, Rice [11, 18] | Plant response rating, Rice [11, 19] | Rice plant response rating [11, 20] | Plant response rating, Sedge, Umbrella [12, 18] | Sedge, Umbrella plant response rating [12, 20]
50: Plant response rating, Morningglory [5, 16]
80: Plant response rating, Barnyardgrass [1, 16] | Foxtail, Giant plant response rating [3, 14] | Plant response rating, Crabgrass, Large [4, 13] | Plant response rating, Pigweed [6, 13] | Plant response rating, Velvetleaf [7, 15] | Plant response rating, Flood, Ducksalad [10, 17]
20: Plant response rating, Barnyardgrass [1, 15] | Plant response rating, Foxtail, Giant [3, 15]
40: Plant response rating, Sedge, Umbrella [12, 19]
30: Plant response rating, Corn [2, 13] | Corn plant response rating [2, 14] | Plant response rating, Wheat [8, 16]
75: Plant response rating, Flood, Sedge, Umbrella [12, 17]
100: Plant response rating, Crabgrass, Large [4, 16] | Plant response rating, Morningglory [5, 13] | Morningglory plant response rating [5, 14] | Plant response rating, Pigweed [6, 16] | Plant response rating, Velvetleaf [7, 13] | Velvetleaf plant response rating [7, 14] | Plant response rating, Velvetleaf [7, 16]
15: Plant response rating, Flood, Barnyardgrass [9, 17]
70: Plant response rating, Foxtail, Giant [3, 13] | Plant response rating, Foxtail, Giant [3, 16] | Plant response rating, Crabgrass, Large [4, 15] | Plant response rating, Pigweed [6, 15] | Plant response rating, Ducksalad [10, 19]
